Reference: US12419874B2, “GLP-1R agonist compound and use thereof” (Chongqing Pharmaceutical Research Institute Co., Ltd., priority 2024, dated 2025)

Columns and labels:
[1] = In vivo pharmacokinetics in rats, oral; design: species or system SD rats; settings: for AUC(0-t) / Cmax / half-life: rat, plasma, SD rats, PO, 1 mg/kg
Protocol: The compounds of the present disclosure were formulated with […]+90% 100 mM glycine-64 mM NaOH, and orally administered to fasted SD rats at a dose of 1 mg/kg or 5 mg/kg, respectively. At different time points (0.25, 0.5, 1.0, 2.0, 4.0, 5.0, 6.0, 7.0, 8.0, and 24 h) after administration, about 50 μL of blood samples were collected from veins into anticoagulant tubes containing EDTA-K2, and centrifuged to separate plasma. The plasma concentrations of the compounds were determined by LC-MS/MS. WinNonlin was used to calculate the pharmacokinetic parameters by using the non-compartmental analysis, and the experimental results were listed in Table 9.

GLP-1R [2] = biological target: T1, GLP-1R (Homo sapiens, UniProt P43220); experiment: GLP-1R agonistic activity by One-Lite luciferase assay in HEK293-GLP-1R-luc cells (Example 59); type: cell-based; settings: 6 h incubation, read-out: cAMP EC50
Protocol: (§1) The agonistic activities of the compounds of the present disclosure on GLP-1R were evaluated by detecting the generation of cAMP.
• (1) Cell line: HEK293-GLP-1R-luc Stable Cell Line (Cobioer, CBP71117); • (2) Culture medium: DMEM+10% FBS (Gibco); • (3) Kit: One-Lite™ kit Luciferase Assay System (Vazyme). 2. Experimental Procedures • (1) HEK293-GLP1R cells were inoculated in a 96-well plate at a density of 30000 cells per well; • (2) 10× working solution of each compound was formulated; • (3) 10 μL of 10× working solution of each compound was added to corresponding well and incubated at 37° C. for 6 h; • (4) 100 μL of One-Lite Luciferase Assay Substrate formulated using One-Lite Luciferase Assay Buffer was added to each well; • (5) The plate was incubated at room temperature for 3 min; • (6) The plate was read by a multimode microplate reader to detect chemiluminescence. 3. Data Analysis • (1) % Activity was calculated by the following formula: % Activity=100−(Signalcmpd−SignalAve-PC)/(SignalAve-VC−SignalAve-PC)×100 • (2) The dose-response curve was plotted to calculate EC50: Y=Bottom+(Top−Bottom)/(1+10^(Log EC50−X)*HillSlope)) • X: log of agonist concentration; Y: Activity. 4. Experimental Results

GLP-1R [3] = biological target: T1, GLP-1R; experiment: GLP-1R agonistic activity by cAMP detection kit in HEK293-GLP-1R-luc cells (Example 58); type: cell-based; settings: 30 min incubation
Protocol: as §1
• (1) Cell line: HEK293-GLP-1R-luc Stable Cell Line (Cobioer, CBP71117); • (2) Culture medium: DMEM+10% FBS (Gibco); • (3) Kit: cAMP detection kit (PerkinElmer). 2. Experimental Procedures • (1) HEK293-GLP1R cells were inoculated in a 384-well plate at a density of 2000 cells per well; • (2) 4× working solution of each compound was formulated; • (3) 5 μL of 4× working solution of each compound was added to corresponding well and incubated at 37° C. for 30 min; • (4) 10 μL of Eu-cAMP tracer diluted with Lysis Buffer (1/50) was added to each well; • (5) 10 μL of Ulight-anti-cAMP diluted with Lysis Buffer (1/150) was added to each well; • (6) The plate was incubated at room temperature for 1 h; • (7) The plate was read by a multimode microplate reader (excitation wavelength: 320 nm; emission wavelength: 665 nm and 620 nm). 3. Data Analysis • (1) % Activity was calculated by the following formula: % Activity=100−(Signalcmpd−SignalAve-PC)/(SignalAve-VC−SignalAve-PC)×100 • (2) The dose-response curve was plotted to calculate EC50: Y=Bottom+(Top−Bottom)/(1+10^(Log EC50−X)*HillSlope)) • X: log of agonist concentration; Y: Activity. 4. Experimental Results

[4] = rats, oral, versus example compound 67 in WO2018056453, in words

T1 sequence (P43220 24-463): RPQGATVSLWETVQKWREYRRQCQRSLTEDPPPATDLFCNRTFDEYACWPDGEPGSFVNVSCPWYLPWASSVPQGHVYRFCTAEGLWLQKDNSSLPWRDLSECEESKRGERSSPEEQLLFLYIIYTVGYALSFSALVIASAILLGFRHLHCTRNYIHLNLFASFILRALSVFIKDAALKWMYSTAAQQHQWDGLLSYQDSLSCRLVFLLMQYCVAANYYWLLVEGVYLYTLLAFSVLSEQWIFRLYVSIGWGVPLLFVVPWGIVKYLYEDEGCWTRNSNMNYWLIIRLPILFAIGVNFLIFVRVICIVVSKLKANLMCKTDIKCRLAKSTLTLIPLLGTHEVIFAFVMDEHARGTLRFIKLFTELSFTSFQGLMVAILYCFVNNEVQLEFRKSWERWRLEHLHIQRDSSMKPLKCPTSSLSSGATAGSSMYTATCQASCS

Structure (SMILES) | EC50 (GLP-1R [2]) | also measured
Cc1cc(-n2nc3c(c2-n2ccn(-c4ccc5c(cnn5C)c4F)c2=O)[C@H](C)N(C(=O)c2cc4cc([C@H]5CCOC(C)(C)C5)ccc4n2[C@@]2(c4noc(=O)[nH]4)C[C@@H]2C)CC32CC(F)(F)C2)cc(C)c1F [Compound 180] | ≤ 20 nM | AUC(0-t) [1]: 1120 ng·h/mL; Cmax [1]: 129 ng/mL; half-life [1]: 6.4 h
Cc1cc(-n2nc3c(c2-n2ccn(-c4ccc5c(cnn5C)c4F)c2=O)[C@H](C)N(C(=O)c2cc4cc([C@H]5CCOC(C)(C)C5)ccc4n2[C@@]2(c4noc(=O)[nH]4)C[C@@H]2C)CC32CCN(C)CC2)cc(C)c1F [Compound 59] | ≤ 20 nM | EC50 (GLP-1R [3]): ≤ 0.1 nM
Cc1cc(-n2nc3c(c2-n2ccn(-c4ccc5c(cnn5C)c4F)c2=O)[C@H](C)N(C(=O)c2cc4cc([C@H]5CCOC(C)(C)C5)ccc4n2[C@@]2(c4noc(=O)[nH]4)C[C@@H]2C)CC32CCNCC2)cc(C)c1F [Compound 57] | ≤ 20 nM | EC50 (GLP-1R [3]): ≤ 0.1 nM
Cc1cc(-n2nc3c(c2-n2ccn(-c4ccc5c(cnn5C)c4F)c2=O)[C@H](C)N(C(=O)c2cc4cc([C@H]5CCOC(C)(C)C5)ccc4n2[C@@]2(c4noc(=O)[nH]4)C[C@@H]2C)CC32CCOCC2)cc(C)c1F [Compound 43] | ≤ 20 nM | EC50 (GLP-1R [3]): ≤ 0.1 nM
Cc1cc(-n2nc3c(c2-n2ccn(-c4ccc5c(cnn5C)c4F)c2=O)[C@H](C)N(C(=O)c2cc4cc(C5CCOC(C)(C)C5)ccn4c2C2(c4noc(=O)[nH]4)CC2)CC32CC2)cc(C)c1F (single isomer, unassigned) [Compound 185-A] | > 300 nM | –
Cc1cc(-n2nc3c(c2-n2ccn(-c4ccc5c(cnn5C)c4F)c2=O)[C@H](C)N(C(=O)c2cc4cc([C@H]5CCOC(C)(C)C5)ccc4n2[C@@]2(c4noc(=O)[nH]4)C[C@@H]2C)CC32CN(C=O)C2)cc(C)c1F [Compound 165] | ≤ 20 nM | –
Cc1cc(-n2nc3c(c2-n2ccn(-c4ccc5c(cnn5C)c4F)c2=O)[C@H](C)N(C(=O)c2cc4cc(N5CCOC(C)(C)C5)ccc4n2C2(c4noc(=O)[nH]4)CC2)CC32CC2)cc(C)c1F [Compound 177] | ≤ 20 nM | –
Cc1cc(-n2nc3c(c2-n2ccn(-c4ccc5c(cnn5C)c4F)c2=O)[C@H](C)N(C(=O)c2cc4cc([C@H]5CCOC(C)(C)C5)ccc4n2[C@@]2(c4noc(=O)[nH]4)C[C@@H]2C)CC32CCC2)cc(C)c1F [Compound 23] | ≤ 20 nM | –
CNC(=O)N1CCC2(CC1)CN(C(=O)c1cc3cc([C@H]4CCOC(C)(C)C4)ccc3n1[C@@]1(c3noc(=O)[nH]3)C[C@@H]1C)[C@@H](C)c1c2nn(-c2cc(C)c(F)c(C)c2)c1-n1ccn(-c2ccc3c(cnn3C)c2F)c1=O [Compound 163] | ≤ 20 nM | –
Cc1cc(-n2nc3c(c2-n2ccn(-c4ccc5c(cnn5C)c4F)c2=O)[C@H](C)N(C(=O)c2cc4cc([C@H]5CCOC(C)(C)C5)ccc4n2[C@@]2(c4noc(=O)[nH]4)C[C@@H]2C)CC32CCCN(C)C2)cc(C)c1F (single isomer, unassigned) [Compound 53-A] | ≤ 20 nM | –
Cc1cc(-n2nc3c(c2-n2ccn(-c4ccc5c(cnn5C)c4F)c2=O)[C@H](C)N(C(=O)c2cc4cc([C@H]5CCOC(C)(C)C5)ccc4n2[C@@]2(c4noc(=O)[nH]4)C[C@@H]2C)CC32CCCCO2)cc(C)c1F (stereo partly shown) [Compound 39] | ≤ 20 nM | –

Further lines, with some results ahead:

EC50 (GLP-1R [2]) | Structure (SMILES) | also measured
≤ 20 nM | Cc1cc(-n2nc3c(c2-n2ccn(-c4ccc5c(cnn5C)c4F)c2=O)[C@H](C)N(C(=O)c2cc4cc([C@H]5CCOC(C)(C)C5)ccc4n2[C@@]2(c4noc(=O)[nH]4)C[C@@H]2C)CC32CC2F)cc(C)c1F (stereo partly shown) [Compound 228] | AUC(0-t) [1]: 2400 ng·h/mL; Cmax [1]: 216 ng/mL; half-life [1]: 13 h; maximum plasma concentration Cmax compared with the control compound [1, 4]: higher; oral exposure AUC compared with the control compound [1, 4]: higher
≤ 20 nM | C=C1CC2(C1)CN(C(=O)c1cc3cc([C@H]4CCOC(C)(C)C4)ccc3n1[C@@]1(c3noc(=O)[nH]3)C[C@@H]1C)[C@@H](C)c1c2nn(-c2cc(C)c(F)c(C)c2)c1-n1ccn(-c2ccc3c(cnn3C)c2F)c1=O [Compound 218] | AUC(0-t) [1]: 990 ng·h/mL; Cmax [1]: 110 ng/mL; half-life [1]: 11.6 h
≤ 20 nM | Cc1cc(-n2nc3c(c2-n2ccn(-c4ccc5c(cnn5C)c4F)c2=O)[C@H](C)N(C(=O)c2cc4cc([C@H]5CCOC(C)(C)C5)ccc4n2[C@@]2(c4noc(=O)[nH]4)C[C@@H]2C)CC32CC(OC3CC3)C2)cc(C)c1F (stereo partly shown) [Compound 193] | –
≤ 20 nM | CNC1CC2(C1)CN(C(=O)c1cc3cc([C@H]4CCOC(C)(C)C4)ccc3n1[C@@]1(c3noc(=O)[nH]3)C[C@@H]1C)[C@@H](C)c1c2nn(-c2cc(C)c(F)c(C)c2)c1-n1ccn(-c2ccc3c(cnn3C)c2F)c1=O (stereo partly shown) [Compound 220] | –
> 300 nM | C[C@H]1c2c(nn(-c3ccc(F)c(C4CC4)c3)c2-n2ccn(-c3ccc4c(cnn4C)c3F)c2=O)C2(CC2)CN1C(=O)c1cc2cc(C3CCOC(C)(C)C3)ccn2c1C1(c2noc(=O)[nH]2)CC1 (single isomer, unassigned) [Compound 186-A] | –
≤ 20 nM | Cc1cc(-n2nc3c(c2-n2ccn(-c4ccc5c(cnn5CC(F)(F)F)c4F)c2=O)[C@H](C)N(C(=O)c2cc4cc([C@H]5CCOC(C)(C)C5)ccc4n2[C@@]2(c4noc(=O)[nH]4)C[C@@H]2C)CC32CC2)cc(C)c1F [Compound 223] | –
≤ 20 nM | Cc1cc(-n2nc3c(c2-n2ccn(-c4ccc5c(cnn5C)c4F)c2=O)[C@H](C)N(C(=O)c2cc4cc([C@H]5CCOC(C)(C)C5)ccc4n2[C@@]2(c4noc(=O)[nH]4)C[C@@H]2C)CC32C[C@H]2C)cc(C)c1F (stereo partly shown) [Compound 226] | AUC(0-t) [1]: 1480 ng·h/mL; Cmax [1]: 160 ng/mL; half-life [1]: 9.3 h
≤ 20 nM | Cc1cc(-n2nc3c(c2-n2ccn(-c4ccc5c(cnn5C)c4F)c2=O)[C@H](C)N(C(=O)c2cc4cc([C@H]5CCOC(C)(C)C5)ccc4n2[C@@]2(c4noc(=O)[nH]4)C[C@@H]2C)CC32CCC(=O)C2)cc(C)c1F (stereo partly shown) [Compound 208] | –
≤ 20 nM | Cc1cc(-n2nc3c(c2-n2ccn(-c4ccc5c(cnn5C)c4F)c2=O)[C@H](C)N(C(=O)c2cc4cc([C@H]5CCOC(C)(C)C5)ccc4n2[C@@]2(c4noc(=O)[nH]4)C[C@@H]2C)CC32CC2(F)F)cc(C)c1F (stereo partly shown) [Compound 225] | –
